Structures can show the parent of a compound that is named as a salt.
Test: Solubility in water determined visually or by UV-spectrometry
Settings: 40° C. overnight, M = Li
Experimental: The solubility of the compounds of Formula (I) was determined visually or by UV-spectrometry. For each compound of Formula (I), three solutions were prepared: one solution at 30 wt %, one solution at 60 wt %, and one solution at 70 wt % containing a 1:1 molar ratio of the compound of Formula (I) with cross-linker Li-BVBSI. 500 ppm 40H-TEMPO was included in all three solutions to prevent premature polymerisation. The solutions were kept in a water bath of 40° C. overnight and centrifuged prior inspection. UV spectra were recorded in a Cary™ 100 UV-visible spectrophotometer from Agilent Technologies using a 1 mm path length quartz cuvette.

| Structure (SMILES) | Solubility in water at 40° C. [wt %] |
| --- | --- |
| C=Cc1ccc(S(=O)(=O)NS(=O)(=O)c2ccccc2)cc1 [MM-P, Benzenesulphonamide, 4-ethenyl-N-(phenylsulphonyl)-, lithium salt] | >60 |
| C=Cc1ccc(S(=O)(=O)NS(C)(=O)=O)cc1 [MM-M, Benzenesulphonamide, 4-ethenyl-N-(methylsulphonyl)-, lithium salt] | >60 |
| C=Cc1ccc(S(=O)(=O)NS(=O)(=O)C(F)(F)F)cc1 [MM-Tf, Benzenesulphonamide, 4-ethenyl-N-[(trifluoromethyl)sulphonyl]-, lithium salt, reference compound] | >60 |
| C=Cc1ccc(S(=O)(=O)[O-])cc1.[Li+] [LiSS, Styrene sulphonate, lithium salt, reference compound] | 40 |
| C=Cc1ccc(S(=O)(=O)NS(N)(=O)=O)cc1 [MM-A, Benzenesulphonamide, 4-ethenyl-N-(aminosulphonyl)-, lithium salt] | >60 |

From patent US12534583B2, “Compositions and polymer films” (Fujifilm Manufacturing Europe B.V., priority 2020, dated 2026)
